Measurements as given in patent publication US20250049779A1, “COMBINATION OF AN A2-ADRENOCEPTOR SUBTYPE C (ALPHA-2C) ANTAGONIST WITH A NOREPINEPHRINE REUPTAKE INHIBITOR FOR THE TREATMENT OF SLEEP APNEA” (Bayer Aktiengesellschaft, priority 2021, published 2025).

Test system: upper airway collapsibility
Assay: pig model of obstructive sleep apnea (OSA): collapse of the upper respiratory tract induced by negative pressure in anaesthetized, spontaneously breathing pigs
Type: in vivo, German Landrace pigs
Settings: for Percent pigs without collaps −150 cm H2O, %: −150 cm H2O (column head; title prints −100)
Source text: The therapeutic potential of the combination of an α2-Adrenoceptor subtype C (alpha-2C) antagonists with a noradrenaline reuptake inhibitor according to the present invention in sleep apnea can be assessed preclinically in a pig model of obstructive sleep apnea (OSA).
Using negative pressure, it is possible to induce collapse and thus obstruction of the upper respiratory tract in anaesthetized, spontaneously breathing pigs (Wirth K. J. et al., Sleep 36(5) (2013) pp. 699-708).
German Landrace pigs are used for the model. The pigs are anaesthetized and tracheotomized. Two tracheal cannulas are inserted into the trachea, one into the rostral part and the other into the caudal part of the trachea. Using a connection piece, the rostral cannula is connected to a tube to the negative pressure device and to the distal tracheal cannula. The distal tracheal cannula is additionally connected to a tube with an open end to atmosphere via a connection piece that served for free tracheal breathing, circumventing the upper airway. By appropriate opening and clamping of those tubes breathing can be switched from nasal breathing to breathing through the caudal tracheal cannula, circumventing the upper airway, and the (isolated) upper airway can be connected to the negative pressure device, causing airflow in the inspiratory direction.
At certain points in time, the collapsibility of the upper respiratory tract is tested by having the pig breathe via the caudal cannula and applying negative pressures of −50, −100 and −150 cm water head (cm H2O) to the upper respiratory tract. This causes the upper respiratory tract to collapse, which manifests itself in an interruption of the airflow and a pressure drop in the tube system. This test is conducted prior to the administration of the test substance and at certain intervals after the administration of the test substance. An appropriately effective test substance can prevent this collapse of the respiratory tract in the inspiratory phase.

[1] = intravenous bolus 20 μg/kg then infusion 12.5 μg/kg/h for four hours, time 0 min (time of administration)
[2] = intravenous bolus 20 μg/kg then infusion 12.5 μg/kg/h for four hours, time 10 min
[3] = intravenous bolus 20 μg/kg then infusion 12.5 μg/kg/h for four hours, time 30 min
[4] = intravenous bolus 20 μg/kg then infusion 12.5 μg/kg/h for four hours, time 60 min
[5] = intravenous bolus 20 μg/kg then infusion 12.5 μg/kg/h for four hours, time 120 min
[6] = intravenous bolus 20 μg/kg then infusion 12.5 μg/kg/h for four hours, time 180 min
[7] = intravenous bolus 20 μg/kg then infusion 12.5 μg/kg/h for four hours, time 240 min

**Q.** What does the source list for `C[C@@H]1CCCN(C2CCN(c3ncc(C(=O)NCc4ncc(F)cc4F)s3)CC2)C1` [N-[(3,5-difluoropyridin-2-yl)methyl]-2-[(3R)-3-methyl[1,4′-bipiperidin]-1′-yl]-1,3-thiazole-5-carboxamide]?
**A.** inhibited upper airway collapsibility at all negative pressures of −50, −100 and −150 cm head (cm H2O) in all pigs (0.01 mg/kg intraduodenal): at no time point; upper airway collapsibility at the negative pressures of −50 and −100 cm head (cm H2O) (0.01 mg/kg intraduodenal, 120 min after administration): inhibited; upper airway collapsibility at the negative pressure of −50 cm head (cm H2O) (0.01 mg/kg intraduodenal, 150 min after administration): inhibited

**Q.** What does the source list for `CNCC[C@@H](Oc1ccccc1C)c1ccccc1` [atomoxetine]?
**A.** inhibited upper airway collapsibility at all negative pressures of −50, −100 and −150 cm head (cm H2O) in all pigs (intravenous bolus 20 μg/kg then infusion 12.5 μg/kg/h for four hours): at no time; Percent pigs without collaps −50 cm H2O, % [1]: 0%; Percent pigs without collaps −50 cm H2O, % [2]: 0%; Percent pigs without collaps −50 cm H2O, % [3]: 0%; Percent pigs without collaps −50 cm H2O, % [4]: 0%; Percent pigs without collaps −50 cm H2O, % [5]: 0%; Percent pigs without collaps −50 cm H2O, % [6]: 0%; Percent pigs without collaps −50 cm H2O, % [7]: 0%; Percent pigs without collaps −100 cm H2O, % [1]: 0%; Percent pigs without collaps −100 cm H2O, % [2]: 0%; Percent pigs without collaps −100 cm H2O, % [3]: 0%; Percent pigs without collaps −100 cm H2O, % [4]: 0%; Percent pigs without collaps −100 cm H2O, % [5]: 0%; Percent pigs without collaps −100 cm H2O, % [6]: 0%; Percent pigs without collaps −100 cm H2O, % [7]: 0%; Percent pigs without collaps −150 cm H2O, % [1]: 0%; Percent pigs without collaps −150 cm H2O, % [2]: 0%; Percent pigs without collaps −150 cm H2O, % [3]: 0%; Percent pigs without collaps −150 cm H2O, % [4]: 0%; Percent pigs without collaps −150 cm H2O, % [5]: 0%; Percent pigs without collaps −150 cm H2O, % [6]: 0%; Percent pigs without collaps −150 cm H2O, % [7]: 0%
